The text below walks through data of patent US10981911B2, “Imidazopyrrolopyridine as inhibitors of the JAK family of kinases” (Janssen Pharmaceutica NV, priority 2016, dated 2021).

pIC50: −log10 of the molar value.

For data set [1], the target named is JAK1-JH1JH2 (Homo sapiens (Human), UniProt P23458). As to the kind of experiment: Enzymatic inhibition assay (RapidFire HTMS), JAK1. It is filed as biochemical. Particulars: 12.5 μM ATP, 200 μM substrate; read-out: JAK1-JH2JH1 IC50. Put shortly:
(§1)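 Quenched with 0.5% TFA plus internal-standard peptide; phosphorylated product quantified by RapidFire C4 SPE–ESI-MS, 11-point 1:3 or 1:4 dilutions in duplicate.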

Data set [2] addresses Tyk2-JH1JH2 (Homo sapiens (Human), UniProt P29597, C1142A/C936A). In words: Enzymatic inhibition assay (RapidFire HTMS), Tyk2. Particulars: 50 μM ATP, 200 μM substrate. It is filed as biochemical. Put shortly:
as §1

The nature of data set [3]: In vivo intracolonic (i.c.) dosing: plasma and colon tissue concentrations (Protocol 3). The settings on record: mice; for concentration at 4 h: colon, read-out: Colon Concentration After i.c. Dosing, Mean. Set-up: species or system female C57BL/6 mice. From the text: Plasma and colon concentration results were obtained by following Protocol 1 using venipuncture of dorsal metatarsal vein bleed for Compounds (B), (C), and Examples 10 and 74. Plasma and colon concentration results were obtained by following Protocol 2 using retro-orbital bleed for Compounds (A), and Examples 1, and 3-5 and Protocol 2 using venipuncture of the dorsal metatarsal vein for Examples 2, 22, 34, 38, 55, and 85. Plasma and colon concentration results were obtained by following Protocol 3 for Examples 1, 3 and 4. These protocols are described below under the heading In vivo Studies.
Intracolonic (IC) dose group: Following anesthesia with isoflurane by inhalation, three non-fasted female C57BL/6 mice were administered the compound intracolonically through a small incision in the abdominal wall using a syringe and needle at a dose of 5 mg/kg as a solution in 20% HPβCD at a dose volume of 1 mL/kg. Blood samples were collected at 0.5, 2, and 4 h post dose via retro-orbital bleed. Blood samples were collected into tubes containing anticoagulant (Heparin-Na) and placed on wet ice. The plasma fraction was separated by centrifugation and frozen at −20° C. for up to 4 h and −80° C. after 4 h unless analyzed shortly after sample collection. Colon samples were collected at 4 h post dose. From 2 cm below the cecum, a 4-cm sample of the colon was dissected, cut open on the longitudinal axis, and the solid contents removed by flushing with 2 mL of saline. The colon was further washed by putting it in 5 mL of saline and shaken for 5 seconds. The colon sample was then patted dry, weighed, and homogenized as 1 part tissue (g) to 4 parts HPLC grade water (mL). Concentrations of the compound in plasma and colon homogenate were determined using a qualified liquid chromatography-triple quadrupole mass spectrometry (LC-MS/MS) method. This protocol was used to evaluate IC dosing of the following test compounds: Examples 1, 3, and 4.

Data set [4] deals with JAK3-JH1JH2 (Homo sapiens (Human), UniProt P52333). As to the kind of experiment: Enzymatic inhibition assay (RapidFire HTMS), JAK3. The data set is classed as biochemical. Particulars: 150 μM ATP, 40 μM substrate. Put shortly:
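JAK3 JH1JH2 reaction incubated 45 min at 25 °C, then quenched with 0.5% TFA containing 0.15 μM internal standard peptide. Phosphopeptide product measured by RapidFire C4 SPE–ESI MS (positive mode); inhibition from product decrease versus uninhibited enzyme, 11-point 1:3 or 1:4 dilutions in duplicate.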

Where [5] appears, read: female, C57BL/6, mouse, other: intracolonic (i.c.), 5 mg/kg i.c.
Setting [6] is: female, C57BL/6, mouse, plasma, other: intracolonic (i.c.), 5 mg/kg i.c., read-out: Plasma Concentration After i.c. Dosing, Mean.

Tyk2-JH1JH2, sequence (P29597 580-1182 C936A/C1142A): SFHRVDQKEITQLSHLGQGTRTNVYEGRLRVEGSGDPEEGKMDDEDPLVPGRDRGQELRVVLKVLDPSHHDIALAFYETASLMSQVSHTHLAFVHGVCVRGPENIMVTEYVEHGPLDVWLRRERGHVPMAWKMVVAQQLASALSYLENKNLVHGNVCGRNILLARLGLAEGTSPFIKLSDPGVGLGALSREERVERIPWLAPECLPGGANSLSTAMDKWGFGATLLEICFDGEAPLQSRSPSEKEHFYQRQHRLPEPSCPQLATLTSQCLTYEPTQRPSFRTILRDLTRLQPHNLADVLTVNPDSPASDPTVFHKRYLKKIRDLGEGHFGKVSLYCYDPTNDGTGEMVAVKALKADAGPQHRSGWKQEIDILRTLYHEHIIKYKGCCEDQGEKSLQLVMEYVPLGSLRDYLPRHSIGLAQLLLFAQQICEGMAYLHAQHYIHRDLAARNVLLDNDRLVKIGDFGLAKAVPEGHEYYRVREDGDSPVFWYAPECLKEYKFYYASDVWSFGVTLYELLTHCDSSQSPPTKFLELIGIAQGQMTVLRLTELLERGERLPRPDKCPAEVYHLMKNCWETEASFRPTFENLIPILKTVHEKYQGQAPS
JAK3-JH1JH2, sequence (P52333 512-1124): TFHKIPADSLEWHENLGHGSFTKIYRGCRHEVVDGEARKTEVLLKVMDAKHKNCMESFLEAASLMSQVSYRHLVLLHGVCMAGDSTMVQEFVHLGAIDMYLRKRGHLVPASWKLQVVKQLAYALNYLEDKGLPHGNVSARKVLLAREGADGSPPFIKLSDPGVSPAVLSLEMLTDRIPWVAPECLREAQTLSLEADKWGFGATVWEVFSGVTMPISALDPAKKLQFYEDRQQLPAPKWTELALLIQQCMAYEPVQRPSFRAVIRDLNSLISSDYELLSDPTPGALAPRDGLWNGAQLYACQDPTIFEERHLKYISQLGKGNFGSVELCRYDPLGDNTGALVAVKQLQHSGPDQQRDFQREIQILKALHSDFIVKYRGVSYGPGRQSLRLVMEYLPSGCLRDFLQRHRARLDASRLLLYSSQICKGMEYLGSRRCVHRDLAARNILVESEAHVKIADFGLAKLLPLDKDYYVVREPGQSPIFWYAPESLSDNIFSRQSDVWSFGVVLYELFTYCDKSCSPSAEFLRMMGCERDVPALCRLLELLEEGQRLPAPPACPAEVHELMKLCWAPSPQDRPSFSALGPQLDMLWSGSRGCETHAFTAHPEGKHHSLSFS
JAK1-JH1JH2, sequence (P23458 574-1154): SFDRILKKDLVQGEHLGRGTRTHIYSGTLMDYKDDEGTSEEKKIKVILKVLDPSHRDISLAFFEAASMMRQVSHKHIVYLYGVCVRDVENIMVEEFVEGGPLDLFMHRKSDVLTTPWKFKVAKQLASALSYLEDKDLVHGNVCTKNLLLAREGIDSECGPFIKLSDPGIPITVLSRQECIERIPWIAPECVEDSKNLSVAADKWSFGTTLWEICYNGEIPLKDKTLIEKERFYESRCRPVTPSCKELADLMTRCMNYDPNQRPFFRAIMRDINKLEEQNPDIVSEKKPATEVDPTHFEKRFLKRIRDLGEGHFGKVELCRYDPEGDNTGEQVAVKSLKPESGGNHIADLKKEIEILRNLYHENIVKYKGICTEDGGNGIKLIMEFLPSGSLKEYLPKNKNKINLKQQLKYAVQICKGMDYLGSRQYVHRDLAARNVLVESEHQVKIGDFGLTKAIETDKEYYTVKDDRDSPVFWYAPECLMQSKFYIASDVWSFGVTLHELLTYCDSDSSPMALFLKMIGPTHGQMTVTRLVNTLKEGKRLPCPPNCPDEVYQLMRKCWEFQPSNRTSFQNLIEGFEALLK

As a reminder, the pIC50 is the IC50 on a negative log10 scale, so that one unit is a factor of ten. Regarding `CC(C)(O)CNC(=O)Cc1nc2cnc3[nH]ccc3c2n1[C@H]1CC[C@H](CC#N)CC1` [Ex. 1, 2-(1-((1r,4r)-4-(Cyanomethyl)cyclohexyl)-1,6-dihydroimidazo[4,5-d]pyrrolo[2,3-b]pyridin-2-yl)-N-(2-hydroxy-2-methylpropyl)acetamide], the negative-log IC50 (pIC50) in data set [1] was 9.52; in data set [2] it was 8.16; in data set [4], 7.06. The concentration at 4 h in data set [3] (setting [5]) turned out to be 681 ng/g. The concentration at 0.5 h in data set [3] (setting [6]) came out at 2.5 ng/mL. In addition, in data set [3], the “systemic exposures after i.c. dosing” value was “low systemic exposures”.

For the compound `N#CC[C@H]1CC[C@H](n2c(CC(=O)NCC3CC3)nc3cnc4[nH]ccc4c32)CC1` [Ex. 3, 2-(1-((1r,4r)-4-(Cyanomethyl)cyclohexyl)-1,6-dihydroimidazo[4,5-d]pyrrolo[2,3-b]pyridin-2-yl)-N-(cyclopropylmethyl)acetamide], the concentration at 4 h in data set [3] (setting [5]) came to 228 ng/g. Further, in data set [3] (setting [6]), the concentration at 0.5 h was 1.5 ng/mL. Further, in data set [3], the “systemic exposures after i.c. dosing” value is given as “low systemic exposures”.

As for `N#CCCNC(=O)Cc1nc2cnc3[nH]ccc3c2n1[C@H]1CC[C@H](CC#N)CC1` [Ex. 4, N-(2-Cyanoethyl)-2-(1-((1r,4r)-4-(cyanomethyl)cyclohexyl)-1,6-dihydroimidazo[4,5-d]pyrrolo[2,3-b]pyridin-2-yl)acetamide], the concentration at 4 h in data set [3] (setting [5]) was determined as 26.1 ng/g. Also, the concentration at 0.5 h in data set [3] (setting [6]) turned out to be 3.8 ng/mL. Further, the concentration at 2 h in data set [3] (female, C57BL/6, mouse, plasma, other: intracolonic (i.c.), 5 mg/kg i.c., Time = 2 h, read-out: Plasma Concentration After i.c. Dosing, Mean) stood at 2.5 ng/mL. Besides, the “systemic exposures after i.c. dosing” value in data set [3] is “low systemic exposures”.

In the case of `CC(C)(C#N)CNC(=O)Cc1nc2cnc3[nH]ccc3c2n1[C@H]1CC[C@H](CC#N)CC1` [Ex. 22, N-(2-Cyano-2-methylpropyl)-2-(1-((1r,4r)-4-(cyanomethyl)cyclohexyl)-1,6-dihydroimidazo[4,5-d]pyrrolo[2,3-b]pyridin-2-yl)acetamide], the negative-log IC50 (pIC50) was 10.00 in data set [1], 8.39 in data set [2] and 7.03 in data set [4].

In the case of `N#CC[C@H]1CC[C@H](n2c(CC(=O)NCC3(O)CCC3)nc3cnc4[nH]ccc4c32)CC1` [Ex. 34, 2-(1-((1r,4r)-4-(Cyanomethyl)cyclohexyl)-1,6-dihydroimidazo[4,5-d]pyrrolo[2,3-b]pyridin-2-yl)-N-((1-hydroxycyclobutyl)methyl)acetamide], the negative-log IC50 (pIC50) is 9.70 in data set [1], 8.51 in data set [2] and 7.37 in data set [4].

In the case of `N#CCC12CCC(NC(=O)Cc3nc4cnc5[nH]ccc5c4n3[C@H]3CC[C@H](CC#N)CC3)(CC1)C2` [Ex. 55, N-(4-(Cyanomethyl)bicyclo[2.2.1]heptan-1-yl)-2-(1-((1r,4r)-4-(cyanomethyl)cyclohexyl)-1,6-dihydroimidazo[4,5-d]pyrrolo[2,3-b]pyridin-2-yl)acetamide], the results for the pIC50 in data set [1], in data set [2] and in data set [4] were 9.70, 8.33 and 7.22, respectively.

For the compound `N#CC[C@H]1CC[C@H](n2c(CC(=O)NCC3(O)CC3)nc3cnc4[nH]ccc4c32)CC1` [Ex. 85, 2-(1-((1r,4r)-4-(Cyanomethyl)cyclohexyl)-1,6-dihydroimidazo[4,5-d]pyrrolo[2,3-b]pyridin-2-yl)-N-((1-hydroxycyclopropyl)methyl)acetamide], the figures for the pIC50 in data set [1], in data set [2] and in data set [4] were 9.40, 8.27 and 7.17, respectively.
